Measurements as given in article PMC9919699, “A Comprehensive Approach to Derivatization: Elemental Composition, Biochemical, and In Silico Studies of Metformin Derivatives Containing Copper and Zinc Complexes” (Molecules, 2023).
Where two headings read alike, the source gives them in different places.

Legend:
[1] = tested on: α-amylase; experiment: α-amylase enzyme inhibition assay (starch, dinitro-salicylic acid, 540 nm); assay type: biochemical; conditions: for IC50: read-out: IC50
Experimental: All derivatives of metformin were analyzed for serum amylase inhibitory activity using the Yukihoko Hara method. Three test tubes were labeled as blank (B), test (T), and control (C). Then, 2.5 mL of phosphate buffer (pH 6.8) was added to each test tube. Next, 1 mL of starch and 1 mL of 2 N sodium chloride solution were added to each test tube. The test tubes were incubated at 37 °C for 10 min. After incubation, 0.5 mL of derivatives was added to test tube T, followed by 0.2 mL of enzyme (α-amylase). All contents were mixed well, and then the tube was incubated at 37 °C for 10 min. In the control test tube, normal saline (2 N), starch solution (1 mL), and enzyme solution (0.2 mL) were added before incubating at 37 °C for 10 min. In the blank test tube, only 5.7 mL of distilled water was added. Dinitro-salicylic acid (0.2 mL) was added to all test tubes. The contents were mixed well, and the test tubes were kept in a boiling water bath for 15 min. The intensity of reddish orange was read at 540 nm. The percentage inhibitory action of serum amylase was calculated using the following formula:Percentage inhibition = OD of control − OD of test tube/OD of control × 100.

[2] = tested on: α-glucosidase; experiment: α-glucosidase enzyme inhibition assay (starch substrate, anthrone reagent, 640 nm); assay type: biochemical
Experimental: The α-glucosidase-inhibitory activity of all derivatives of metformin was tested using the method previously described. Three test tubes were marked as test (T), blank (B), and control (C). Then, 200 µL of substrate (starch) and enzyme (α-glucosidase) was added to test tubes T and C. The contents were mixed well, and then the test tubes were incubated at 37 °C for 30 min. After incubation, trichloroacetic acid was added to all test tubes, which were then centrifuged for 10 min. Free glucose was available after the reaction with anthrone reagent (1.5 mL). The contents in the test tubes were boiled for 15 min, and the absorbance was read at a wavelength at 640 nm. The percentage inhibition was calculated using the following formula:Percentage inhibition = OD of control − OD of test tube/OD of control × 100.

[3] = 250 µg/mL, Table 9 (MZn series)
[4] = 500 µg/mL, Table 9 (MZn series)
[5] = 1000 µg/mL, Table 9 (MZn series)
[6] = 250 µg/mL, Table 6 (MZn series)
[7] = 500 µg/mL, Table 6 (MZn series)
[8] = 1000 µg/mL, Table 6 (MZn series)
[9] = 250 µg/mL, Table 8 (MCu series)
[10] = 500 µg/mL, Table 8 (MCu series)
[11] = 1000 µg/mL, Table 8 (MCu series)
[12] = 250 µg/mL, Table 5 (MCu series)
[13] = 500 µg/mL, Table 5 (MCu series)
[14] = 1000 µg/mL, Table 5 (MCu series)
[15] = Table 5 (MCu series), read-out: IC50

Structure (SMILES) | % Inhibition [1, 3] | % Inhibition [1, 4] | % Inhibition [1, 5] | IC50 ([1]; Table 9 (MZn series)) | % Inhibition [2, 6] | % Inhibition [2, 7] | % Inhibition [2, 8] | % Inhibition [1, 9] | % Inhibition [1, 10] | % Inhibition [1, 11] | % Inhibition [2, 12] | % Inhibition [2, 13] | % Inhibition [2, 14] | IC50 ([1]; Table 8 (MCu series)) | IC50 [2, 15] | further results
C=NC(=N)NC(=N)N(C)C.C=NC(=N)NC(=N)N(C)C.O.O.O.O.O.O=S(=O)([O-])[O-].[Zn+2] [MZn4] | 15.55 ± 0.34% | 31.49 ± 0.28% | 54.44 ± 0.28% | 500 µM | 11.30 ± 0.15% | 13.59 ± 0.20% | 14.71 ± 0.26% |  |  |  |  |  |  |  |  | 
COc1cc(C=NC(=N)NC(=N)N(C)C)ccc1O.COc1cc(C=NC(=N)NC(=N)N(C)C)ccc1O.O.O.O.O.O.O=S(=O)([O-])[O-].[Zn+2] [MZn8] | 37.46 ± 0.23% | 68.50 ± 0.40% | 83.52 ± 0.40% | 900 µM | 49.24 ± 0.21% | 70.37 ± 0.25% | 81.54 ± 0.26% |  |  |  |  |  |  |  |  | IC50 [2]: 511.4 µg/mL; IC50 ([2]; Table 6 (MZn series), read-out: IC50): 650 µM
C[C@H]1O[C@H](O[C@H]2[C@H](O)[C@@H](O)[C@@H](O[C@H]3[C@H](O)[C@@H](O)C(O)O[C@@H]3CO)O[C@@H]2CO)[C@H](O)[C@@H](O)[C@@H]1N[C@H]1C=C(CO)[C@@H](O)[C@H](O)[C@H]1O (stereo partly shown) [Acarbose, reference compound] | 49.59 ± 0.34% | 72.73 ± 0.46% | 91.71 ± 0.46% |  | 54.12 ± 0.09% | 74.52 ± 0.19% | 98.60 ± 0.10% | 42.73 ± 0.46% | 67.52 ± 0.34% | 92.73 ± 0.46% | 42.65 ± 0.09% | 62.41 ± 0.28% | 91.83 ± 0.18% |  |  | % Inhibition ([1]; 250 µg/mL, Table 7 (Met series)): 49.65 ± 0.15%; % Inhibition ([1]; 500 µg/mL, Table 7 (Met series)): 72.33 ± 0.20%; % Inhibition ([1]; 1000 µg/mL, Table 7 (Met series)): 91.58 ± 0.36%; % Inhibition ([2]; 250 µg/mL, Table 4 (Met series)): 41.84 ± 0.08%; % Inhibition ([2]; 500 µg/mL, Table 4 (Met series)): 66.79 ± 0.09%; % Inhibition ([2]; 1000 µg/mL, Table 4 (Met series)): 89.01 ± 0.01%
CN(C)C(=N)NC(=N)N=C(c1ccccc1)c1ccccc1.CN(C)C(=N)NC(=N)N=C(c1ccccc1)c1ccccc1.O.O.O.O.O.O=S(=O)([O-])[O-].[Cu+2] [MCu7] |  |  |  |  |  |  |  | 15.37 ± 0.23% | 38.31 ± 0.46% | 55.43 ± 0.23% | 29.47 ± 0.18% | 37.37 ± 0.30% | 48.29 ± 0.28% | 200 µM | 320 µM | 
CN(C)C(=N)NC(=N)N=C(c1ccccc1)C(O)c1ccccc1.CN(C)C(=N)NC(=N)N=C(c1ccccc1)C(O)c1ccccc1.O.O.O.O.O.O=S(=O)([O-])[O-].[Cu+2] (stereo not shown) [MCu9] |  |  |  |  |  |  |  | 13.46 ± 0.23% | 34.66 ± 0.40% | 67.48 ± 0.40% | 15.23 ± 0.12% | 28.37 ± 0.20% | 49.49 ± 0.25% | 130 µM | 200 µM | 
CC(=NC(=N)NC(=N)N(C)C)c1ccccc1.CC(=NC(=N)NC(=N)N(C)C)c1ccccc1.O.O.O.O.O.O=S(=O)([O-])[O-].[Cu+2] [MCu6] |  |  |  |  |  |  |  | 23.34 ± 0.51% | 45.45 ± 0.28% | 64.65 ± 0.28% | 10.74 ± 0.11% | 24.44 ± 0.15% | 53.44 ± 0.33% | 320 µM | 290 µM | 
